Test results as given in article PMC8176454, “Synthesis and Assessment of Novel Probes for Imaging Tau Pathology in Transgenic Mouse and Rat Models” (ACS Chemical Neuroscience, 2021).
Entries after “also recorded” stand apart in the source; their conditions may differ.

What was measured:
[1] = target: T1, 4R tau151-391 aggregates in brainstem sections from SHR72 rats (Homo sapiens, UniProt P10636); test: Binding to SHR72 transgenic rat brain sections; conditions: 50 μM, colocalization with AT8
T1 construct: tissue AXON Neuroscience; host or cells: brain (brainstem) sections of SHR72 transgenic rats
Source text: Since future PET studies for development of these compounds would require kinetic modeling for their assessment in vivo, we tested their performance in tau transgenic rats. Rat brains and blood volumes are about 6- and 10-fold larger, respectively, than those of mice and thus enable higher resolution imaging and ample volume for repeated blood sampling. We used two transgenic rat lines expressing human-truncated tau comprising the proline-rich region and either three microtubule binding domains (3R tau151-391, SH24)[28] or four microtubule binding domains (4R tau151-391, SHR72).[29] […] However, compared to the SHR24 rat brain sections, there were less inclusions detected, which seems to indicate the compounds have preferential binding toward the three repeat forms of tau in these rat models.
Fresh frozen rat brain coronal sections (10 μm) were stored on slides at −80 °C until use. Sections were fixed in ice cold acetone for 10 min and air-dried and then rehydrated twice for 5 min with buffer (10 mM PBS with 0.1% Triton X-100) before application of 5% bovine serum albumin for 1 h and two more 5 min buffer washes. […] The green autofluorescence of PBB3 and LM229 was visualized using a 488 nm filter and fluorescence of AT8 using a 568 nm filter on a Leica DM6000 microscope.

[2] = target: T2, tau aggregates in brain of P301S tau mice (Homo sapiens, UniProt P10636, P618S); test: Ex vivo mouse study: i.v. injection, brain sections imaged after 1 h; assay type: in vivo
T2 construct: from tissue; host or cells: brain of transgenic P301S tau mice (C57Bl/6 background)
Protocol: We next looked at the ability of LM229 to cross the blood–brain barrier (BBB), a key property of any viable neuro-radiotracer. LM229 was injected intravenously (i.v.) (1 mg/kg weight), and after 1 h, WT and P301S tau mice were perfused-fixed and brain sections were imaged under a fluorescence microscope. […] However, we await a comparison of PBB3 and LM229 by PET imaging to determine their relativity properties as in vivo imaging probes.
Mice were injected intravenously (i.v.) with 50 μM LM229 or PBB3 (DMSO) diluted in 50:50 ethanol/PBS. Animals were then perfused (4% PFA) 1 h post-i.v.

[3] = target: tau (AT8) in AD frontal cortex sections (Homo sapiens, UniProt P10636); test: Staining of post-mortem AD frontal cortex sections, tau
Protocol: To further validate LM229 as a potential radiotracer for translational research, we investigated its binding to tau aggregates in human globus pallidus/putamen from progressive supranuclear palsy (PSP) subjects (Figure 7) and its selectivity for tau over β-amyloid pathology in AD frontal cortex sections (Figure 8).
In slices from frontal cortex of AD brains, LM229 gave rise to strong signal (Figure 8A), which colocalized with AT8 immunofluorescence (Figure 8B). […]
buffer) for 1 h at room temperature. Following 3 washes in PBS/0.1% Triton X-100, 50 µM LM229 (diluted in 1:1 blocking buffer/ethanol) was then added for 1 h at room temperature. Nuclei were stained with DAPI (0.1mg/ml for 10 min), washed and tissues mounted in FluorSaveTM prior to analysis using fluorescence […]
Binding affinity of all compounds with tau fibrils
Microscale Thermophoresis was first used to screen whether there were interaction between the compounds and tau fibrils. For this procedure 200 µL, 5 µM tau fibrils were mixed with 200 µL, 10 µM NT647-NHS dye and then incubated in dark for 30 minutes. Further dialysis (18 hours, changing the buffer after the first 4 hours) was used to remove the free dye giving a 2.5 µM solution of label led protein. […] With each compound, two concentrations (1µM and 1nM) were used to mix with 100nM tau fibrils and then loaded to the MST instrument to read out the MST data curve. […]

T2 sequence (P10636 1-383 isoform P10636-6 P243S): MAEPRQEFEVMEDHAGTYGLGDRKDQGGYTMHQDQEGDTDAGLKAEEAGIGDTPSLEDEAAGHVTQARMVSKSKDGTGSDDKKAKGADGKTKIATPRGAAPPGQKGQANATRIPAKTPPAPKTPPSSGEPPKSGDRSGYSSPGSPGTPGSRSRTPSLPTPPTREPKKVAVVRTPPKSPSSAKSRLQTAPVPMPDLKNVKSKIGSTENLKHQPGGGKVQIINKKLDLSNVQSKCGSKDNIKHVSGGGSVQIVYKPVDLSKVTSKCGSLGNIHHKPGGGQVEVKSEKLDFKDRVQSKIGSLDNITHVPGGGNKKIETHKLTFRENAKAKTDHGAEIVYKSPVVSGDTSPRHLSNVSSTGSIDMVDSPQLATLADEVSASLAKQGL
tau (AT8) in AD frontal cortex sections, sequence (P10636 623-708 limits assumed): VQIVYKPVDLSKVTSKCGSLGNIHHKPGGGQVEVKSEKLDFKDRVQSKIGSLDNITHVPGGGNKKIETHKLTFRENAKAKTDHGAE
T1 sequence (P10636 468-708): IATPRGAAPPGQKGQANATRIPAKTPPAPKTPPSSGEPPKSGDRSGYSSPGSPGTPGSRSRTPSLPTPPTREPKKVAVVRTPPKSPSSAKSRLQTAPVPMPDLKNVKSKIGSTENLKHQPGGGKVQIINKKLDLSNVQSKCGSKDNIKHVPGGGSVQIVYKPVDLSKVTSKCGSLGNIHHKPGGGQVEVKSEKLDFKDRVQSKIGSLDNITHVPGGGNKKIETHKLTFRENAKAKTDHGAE

Compound: CNc1ccc(/C=C/C=C/c2nc3cc(F)c(O)cc3s2)cn1 [LM229]
- Binding to tau in SHR72 rat brain sections [1]: bound to tau in brain sections from SHR72 rats
- Blood–brain barrier crossing ([2]; i.v. 1 mg/kg, 1 h, fluorescence microscopy): crosses the BBB
- Ex vivo binding in P301S tau brain tissue ([2]; i.v. injection 1 h prior, colocalization with AT8): less non-specific binding and more specific binding to tau aggregates; also recorded: significant specific binding to tau aggregates
- Signal on AD frontal cortex slices colocalized with AT8 [3]: strong signal
